Measurements published in ChEMBL document CHEMBL1201862, “PubChem BioAssay data set” (2004).
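Method: 48-hour compound exposure of cells in 96-well plates, five concentrations, linear interpolation of endpoints. GI50 is the concentration that inhibits growth by half.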 Active and inactive are the calls of the source. Cut-off read from the data, not from the text of the source: active = GI50 up to about 1.1 µM and inactive = higher.

Key:
Test in all cases: NCI anticancer screen, dose series, 48 h
[1] = test system: OVCAR-3
[2] = test system: LOX IMVI
[3] = test system: RXF 393
[4] = test system: SR
[5] = test system: SN12C
[6] = test system: UO-31
[7] = test system: HCT-15
[8] = test system: PC-3
[9] = test system: UACC-62
[10] = test system: 786-0
[11] = test system: CAKI-1
[12] = test system: HT-29
[13] = test system: SK-OV-3
[14] = test system: SNB-19
[15] = test system: HOP-92
[16] = test system: EKVX
[17] = test system: HL-60
[18] = test system: MCF7
[19] = test system: NCI-H460
[20] = test system: SF-268

Row | Compound | GI50 [1] | GI50 [2] | GI50 [3] | GI50 [4] | GI50 [5] | GI50 [6] | GI50 [7] [µM] | GI50 [8] | GI50 [9] | GI50 [10] | GI50 [11] | GI50 [12] | GI50 [13] | GI50 [14] | GI50 [15] | GI50 [16] | GI50 [17] | GI50 [18] | GI50 [19] | GI50 [20]
1 | O=C(OCc1ccccc1)N1CCNCCN(C(=O)OCc2ccccc2)CCNCC1 | 35.4 µM (inactive) | 13.2 µM (inactive) | 52.8 µM (inactive) | 86.1 µM (inactive) | 39.4 µM (inactive) | 7.03 µM (inactive) | 32.5 | 25.9 µM (inactive) | 27.5 µM (inactive) | 18.3 µM (inactive) | 15 µM (inactive) | 17.7 µM (inactive) | 49.8 µM (inactive) | 47.5 µM (inactive) | 21.1 µM (inactive) | 28 µM (inactive) | 24.3 µM (inactive) | 17.7 µM (inactive) | 21.6 µM (inactive) | 
2 | CCOP(=O)(OCC)/C(C#N)=C/c1cccn1N(C)C | > 100 µM (inactive) | > 100 µM (inactive) | > 100 µM (inactive) | > 100 µM (inactive) | > 100 µM (inactive) | > 100 µM (inactive) | > 100 | > 100 µM (inactive) | > 100 µM (inactive) | > 100 µM (inactive) | > 100 µM (inactive) | > 100 µM (inactive) | > 100 µM (inactive) | > 100 µM (inactive) | > 100 µM (inactive) | > 100 µM (inactive) | > 100 µM (inactive) | > 100 µM (inactive) | > 100 µM (inactive) | > 100 µM (inactive)
3 | COC(=O)C(Cc1ccccc1)NC(=O)C(CCCNC(=N)N)NC(=O)OCc1ccccc1 (stereo not given) | > 100 µM (inactive) | > 100 µM (inactive) | > 100 µM (inactive) | > 100 µM (inactive) | > 100 µM (inactive) | > 100 µM (inactive) | > 100 | > 100 µM (inactive) | > 100 µM (inactive) | > 100 µM (inactive) | > 100 µM (inactive) | > 100 µM (inactive) | > 100 µM (inactive) | > 100 µM (inactive) | > 100 µM (inactive) | > 100 µM (inactive) | > 100 µM (inactive) | > 100 µM (inactive) | > 100 µM (inactive) | > 100 µM (inactive)
4 | CC(=O)Oc1ccc2c(c1)c1c(=O)oc(N(C)C)nc1n2Cc1ccccc1 | 55.1 µM (inactive) | 49.7 µM (inactive) | 52.5 µM (inactive) | 43.1 µM (inactive) | > 100 µM (inactive) | 10.8 µM (inactive) | 37.9 | > 61.4 µM (inactive) | 28.4 µM (inactive) | 50.9 µM (inactive) |  | 64 µM (inactive) | > 100 µM (inactive) | > 100 µM (inactive) | 19.5 µM (inactive) | > 100 µM (inactive) | 23.6 µM (inactive) | 25.2 µM (inactive) | 52.2 µM (inactive) | 37.1 µM (inactive)
5 | COC(=O)/C=C(\CC(=O)OC)n1nnnc1[C@@H]1C[C@H](COC(c2ccccc2)(c2ccccc2)c2ccccc2)[C@H]2OC(C)(C)O[C@H]21 | > 100 µM (inactive) | > 100 µM (inactive) | 42.1 µM (inactive) | 92 µM (inactive) | > 100 µM (inactive) | > 100 µM (inactive) |  | > 100 µM (inactive) |  | > 100 µM (inactive) | > 100 µM (inactive) | > 100 µM (inactive) | > 100 µM (inactive) | > 100 µM (inactive) | > 100 µM (inactive) | 54.2 µM (inactive) | > 100 µM (inactive) | 31.9 µM (inactive) |  | > 100 µM (inactive)
6 | COc1ccc(C2SCC(=O)N2NC(=O)C(C)Oc2ccc(Cl)cc2Cl)cc1 (stereo not given) | 66.2 µM (inactive) | 41.1 µM (inactive) | 25.6 µM (inactive) | < 0.01 µM (active) | 41.7 µM (inactive) | 88.5 µM (inactive) | > 100 | 27.4 µM (inactive) | 33.9 µM (inactive) | 20.3 µM (inactive) | 21.8 µM (inactive) | > 100 µM (inactive) | 49.2 µM (inactive) | 35 µM (inactive) | 21.1 µM (inactive) | 60 µM (inactive) | 14.2 µM (inactive) | 32.1 µM (inactive) | 81.1 µM (inactive) | > 100 µM (inactive)
7 | C=CCN1C(=O)/C(=C/c2ccc(OC)cc2)N=C1SC/C=C/C | 74.1 µM (inactive) | 31.6 µM (inactive) | 16.6 µM (inactive) | 17.3 µM (inactive) | 19.5 µM (inactive) | 32.1 µM (inactive) | 24.2 | 30.4 µM (inactive) | 42.8 µM (inactive) | 34.7 µM (inactive) | 84.5 µM (inactive) | 33.7 µM (inactive) | > 100 µM (inactive) | 34.4 µM (inactive) | 24 µM (inactive) | 33.5 µM (inactive) | 20 µM (inactive) | 32.1 µM (inactive) | 61.9 µM (inactive) | 53.8 µM (inactive)
